Consider eleven compounds from PMC6273036, “N-Alkoxyphenylhydroxynaphthalenecarboxamides and Their Antimycobacterial Activity” (Molecules, 2016).

Data set [1] has as its system Mycobacterium tuberculosis H37Ra ATCC 25177. Kind of data set: In vitro antimycobacterial evaluation (alamarBlue, MIC) against M. tuberculosis. Type of data set: cell-based. The note with it: 168 h, M. tuberculosis H37Ra ATCC 25177, MIC = 90% or greater (IC90) reduction of growth, 7 days. The procedure: The evaluation of the in vitro antimycobacterial activity of the compounds was performed against Mycobacterium tuberculosis H37Ra ATCC 25177 (MT), M. kansasii DSM 44162 (MK) and M. smegmatis ATCC 700084 (MS), see Table 1. To lower risk and make manipulation in the laboratory easier, surrogate model pathogens for M. tuberculosis can be used in laboratory studies. Avirulent M. tuberculosis strain H37Ra is very closely related to and has similar pathology as human-infecting M. tuberculosis strains, making it a good model for study especially because of the lower risk for laboratory workers. M. kansasii, the most virulent of the NTM, causes nontuberculous mycobacterial lung infections, which are now very common, and can be indistinguishable from tuberculosis. M. smegmatis is an ideal representative of a fast-growing nonpathogenic microorganism, particularly useful in studying basic cellular processes of special relevance to pathogenic mycobacteria. Therefore additionally M. kansasii and M. smegmatis were chosen as model species for screening of prospective antimycobacterial drugs to control mycobacterial diseases. The potency of the compounds was expressed as the minimum inhibitory concentration (MIC) that is defined for mycobacteria as 90% or greater (IC90) reduction of growth in comparison with the control.
Mycobacterium tuberculosis H37Ra ATCC 25177 was grown in Middlebrook broth (MB), supplemented with Oleic-Albumin-Dextrose-Catalase (OADC) supplement (Becton, Dickinson & Comp., Franklin Lakes, NJ, USA) and mycobactin J (2 μg/mL). At log phase growth, a culture sample (10 mL) was centrifuged at 15,000 rpm/20 min using a bench top centrifuge (Model CR 4-12, Jouan Inc., Winchester, VA, USA). Following the removal of the supernatant, the pellet was washed in fresh Middlebrook 7H9GC broth and re-suspended in fresh, ODAC-supplemented MB (10 mL). The turbidity was adjusted to match McFarland standard No. 1 (3 × 10^8 cfu) with MB broth. A further 1:20 dilution of the culture was then performed in MB broth. The antimicrobial susceptibility of M. tuberculosis was investigated in a 96-well plate format. In these experiments, sterile deionised water (300 µL) was added to all outer-perimeter wells of the plates to minimize evaporation of the medium in the test wells during incubation. Each evaluated compound (100 µL) was incubated with M. tuberculosis (100 µL). Dilutions of each compound were prepared in duplicate. For all synthesized compounds, final concentrations ranged from 1000 μg/mL to 8 μg/mL. All compounds were dissolved in DMSO, and subsequent dilutions were made in supplemented MB. The plates were sealed with parafilm and incubated at 37 °C for 7 days. Following incubation, a 10% addition of alamarBlue (AbD Serotec, Kidlington, UK) was mixed into each well, and readings at 570 nm and 600 nm were taken, initially for background subtraction and subsequently after 24 h re-incubation. The background subtraction is necessary for strongly coloured compounds, where the colour may interfere with the interpretation of any colour change. For non-interfering compounds, a blue colour in the well was interpreted as the absence of growth, and a pink colour was scored as growth.
The minimum inhibitory concentration (MIC) was defined as the lowest concentration of the compound at which no visible bacterial growth was observed, i.e., the MIC is the lowest concentration that prevented a visual colour change from blue to pink. MIC is defined for mycobacteria as 90% or greater (IC90) reduction of growth in comparison with the control. The MIC/IC90 value is routinely and widely used in bacterial assays and is a standard detection limit according to the Clinical and Laboratory Standards Institute (CLSI, www.clsi.org). Rifampicin and isoniazid (Sigma-Aldrich) were used as the standards as they are clinically used antimycobacterial drugs.
A general note: Alamar Blue is a resazurin reagent that responds to reducing activity.

Data set [2] has as its system M. smegmatis ATCC 700084. Kind of data set: In vitro antimycobacterial evaluation (broth dilution micro-method, MIC) against M. smegmatis. It counts as cell-based. To be noted: Mycolicibacterium smegmatis, ATCC700084, 72 h; Mycobacterium smegmatis ATCC 700084; MIC = IC90; 3 days incubation, visual. (In general: Dilution methods test growth across graded concentrations, often in twofold steps.)

Data set [3] concerns Mycobacterium kansasii DSM 44162. Kind of data set: In vitro antimycobacterial evaluation (broth dilution micro-method, MIC) against M. kansasii. The note with it: DSM44162, 168 h, M. kansasii DSM 44162, MIC = IC90, 7 days incubation, visual. It counts as cell-based.
Data set [4] has as its system Mycobacterium tuberculosis H37Ra ATCC 25177. The experiment in a line: MTT assay, viability of M. tuberculosis H37Ra. It counts as cell-based. The note with it: at the tested concentration equal to MICs; 7 days; positive result when viability less than 70%. How it is done: The MTT assay is a well-characterized method of assessing cell growth through measurement of respiration. For the purpose of this assay, a positive result was recorded when the MTT measured viability of M. tuberculosis H37Ra was less than 70% after exposure to the MIC of each test compound.
For the MTT (3-(4,5-dimethylthiazol-2-yl)-2,5-diphenyltetrazolium bromide) assay, the outer wells of a 96-well plate were filled with 200 µL of sterile water, and the inner wells were filled with 100 µL of the tested compound at the MIC to be examined. Compounds were prepared as previously stated and diluted in Middlebrook media to achieve the desired concentration. Mycobacterium tuberculosis H37Ra ATCC 25177 was suspended in ODAC supplemented Middlebrook broth at a MacFarland standard of 1.0 and then diluted 1:20, using Middlebrook broth as a diluent. The diluted mycobacteria (100 µL) were added to each well containing the compound to be tested. A negative growth control was composed of 100 µL of DMSO and 100 µL of the media, and the diluted mycobacteria in broth absent of inhibiting compounds were used as a positive growth control. All compounds and controls were prepared in triplicate. Plates were incubated at 37 °C for 7 days. After the incubation period, 10% well volume of MTT reagent was mixed into each well and incubated at 37 °C for 24 h. The reagent and media were then aspirated from the wells, to which 50 µL 99% isopropanol was then added, and the plates were read at 570 nm. The absorbance readings from the cells, grown in the presence of the tested compounds, were compared with uninhibited cell growth (using DMSO as the blank) to determine the relative percent viability. The percent viability was determined through the MTT assay. The percent viability is calculated through comparison of a measured value against that of the uninhibited control: %viability = OD570E/OD570P × 100, where OD570E is the reading from the compound-exposed cells, while OD570P is the reading from the uninhibited cells (positive control). Cytotoxic potential is determined by a percent viability of <70%.
In general terms: Tetrazolium assays rely on reduction of a dye to a coloured formazan, in cell work by metabolically active cells.

The test system of data set [5] is human monocytic leukemia THP-1 cells. Kind of data set: In vitro antiproliferative assay (WST-1). The note with it: THP-1, 24 h, read-out: IC50 (antiproliferative activity).
Procedure: Human monocytic leukemia THP-1 cells were used for in vitro antiproliferative assay. Cells were obtained from the European Collection of Cell Cultures (ECACC, Salisbury, UK) and routinely cultured in RPMI 1640 medium supplemented with 10% fetal bovine serum, 2% L-glutamine, 1% penicillin and streptomycin at 37 °C with 5% CO2. Cells were passaged at approximately one-week intervals. Antiproliferative activity of the compounds was determined using a Water Soluble Tetrazolium Salts-1 (WST-1, 2-(4-iodophenyl)-3-(4-nitrophenyl)-5-(2,4-disulfophenyl)-2H-tetrazolium) assay kit (Roche Diagnostics, Mannheim, Germany) according to the manufacturer’s instructions. The tested compounds were dissolved in DMSO and added in five increasing concentrations (0.37, 1.1, 3.3, 10 and 30 μM) to the cell suspension in the culture RPMI 1640 medium. The maximum concentration of DMSO in the assays never exceeded 0.1%. Subsequently, the cells were incubated for 24 h at 37 °C with 5% CO2. For WST-1 assays, cells were seeded into 96-well plates (5 × 10^4 cells/well in 100 μL culture medium) in triplicate in serum-free RPMI 1640 medium, and measurements were taken 24 h after the treatment with the compounds. The median inhibition concentration values, IC50, were deduced through the production of a dose-response curve. All data were evaluated using GraphPad Prism 5.00 software (GraphPad Software, San Diego, CA, USA).

Structures are written as SMILES. Values after ≈ are worked out from the molar mass of the structure shown.

As usually defined, the MIC is the least concentration at which growth counts as inhibited. Read a high MIC as weaker potency. By IC50 is commonly meant the concentration needed to halve the response being measured. Consider `CCOc1ccccc1NC(=O)c1c(O)ccc2ccccc12` [Compound 3a, N-(2-Ethoxyphenyl)-2-hydroxynaphthalene-1-carboxamide], for which the MIC in data set [1] was determined as 26 µM (≈ 7.99 µg/mL); in data set [2], 832 µM (≈ 256 µg/mL); in data set [3], 832 µM (≈ 256 µg/mL). Besides, the “viability of M. tuberculosis H37Ra (MTT)” value in data set [4] is 30.6%. The IC50 in data set [5] was above 30 µM.
Consider `CCOc1ccc(NC(=O)c2c(O)ccc3ccccc23)cc1` [Compound 3c], for which the minimal inhibitory concentration (MIC) in data set [1] turned out to be 26 µM (≈ 7.99 µg/mL); in data set [2], 832 µM (≈ 256 µg/mL); in data set [3] it was 104 µM (≈ 32 µg/mL). Besides, the “viability of M. tuberculosis H37Ra (MTT)” value in data set [4] amounted to 9.96%. In data set [5], the IC50 is above 30 µM.
Turning to `CCCOc1ccc(NC(=O)c2c(O)ccc3ccccc23)cc1` [Compound 4c, 2-Hydroxy-N-(4-propoxyphenyl)naphthalene-1-carboxamide], the minimal inhibitory concentration (MIC) amounted to 12 µM (≈ 3.86 µg/mL) in data set [1], 398 µM (≈ 128 µg/mL) in data set [2] and 99 µM (≈ 31.8 µg/mL) in data set [3]. The “viability of M. tuberculosis H37Ra (MTT)” value in data set [4] stood at 5.90%. For the same compound, the IC50 in data set [5] was above 30 µM.
The like results for `CCCCOc1cccc(NC(=O)c2c(O)ccc3ccccc23)c1` [Compound 5b, N-(3-Butoxyphenyl)-2-hydroxynaphthalene-1-carboxamide] were, in that order, 23 µM (≈ 7.71 µg/mL), 381 µM (≈ 128 µg/mL), 190 µM (≈ 63.7 µg/mL), 7.38% and above 30 µM.
On the same counts, the results for `CC(C)Oc1ccc(NC(=O)c2c(O)ccc3ccccc23)cc1` [Compound 6c, 2-Hydroxy-N-[4-(prop-2-yloxy)phenyl]naphthalene-1-carboxamide] are 25 µM (≈ 8.03 µg/mL), 796 µM (≈ 256 µg/mL), 99 µM (≈ 31.8 µg/mL), 8.96% and above 30 µM.
The like results for `CCC(C)Oc1cccc(NC(=O)c2c(O)ccc3ccccc23)c1` (stereo not drawn) [Compound 7b, N-[3-(But-2-yloxy)phenyl]-2-hydroxynaphthalene-1-carboxamide] were, in that order, 23 µM (≈ 7.71 µg/mL), 12 µM (≈ 4.02 µg/mL), 47 µM (≈ 15.8 µg/mL), 7.38% and above 30 µM.
Take `CCC(C)Oc1ccc(NC(=O)c2c(O)ccc3ccccc23)cc1` (stereo not drawn) [Compound 7c, N-[4-(But-2-yloxy)phenyl]-2-hydroxynaphthalene-1-carboxamide]: the values for the MIC in data set [1], in data set [2] and in data set [3] were 23 µM (≈ 7.71 µg/mL), 12 µM (≈ 4.02 µg/mL) and 95 µM (≈ 31.9 µg/mL), respectively. Further, the “viability of M. tuberculosis H37Ra (MTT)” value in data set [4] worked out at 8.86%. Besides, the IC50 in data set [5] was above 30 µM.
With `CC(C)Oc1ccc(NC(=O)c2ccc3ccccc3c2O)cc1` [Compound 13c, 1-Hydroxy-N-[4-(prop-2-yloxy)phenyl]naphthalene-2-carboxamide], the values for the MIC in data set [1], in data set [2] and in data set [3] were 778 µM (≈ 250 µg/mL), 796 µM (≈ 256 µg/mL) and 49 µM (≈ 15.7 µg/mL), respectively. Besides, the IC50 in data set [5] is 9.39 ± 1.39 µM.
Take `CCC(C)Oc1ccccc1NC(=O)c1ccc2ccccc2c1O` (stereo not drawn) [Compound 14a, N-[2-(But-2-yloxy)phenyl]-1-hydroxynaphthalene-2-carboxamide]: the values for the MIC in data set [1], in data set [2] and in data set [3] were 745 µM (≈ 250 µg/mL), 763 µM (≈ 256 µg/mL) and 47 µM (≈ 15.8 µg/mL), respectively. The IC50 in data set [5] came out at 9.03 ± 1.18 µM.
Take `CCC(C)Oc1ccc(NC(=O)c2ccc3ccccc3c2O)cc1` (stereo not drawn) [Compound 14c, N-[4-(But-2-yloxy)phenyl]-1-hydroxynaphthalene-2-carboxamide]: the minimum inhibitory concentration (MIC) in data set [1] amounted to 745 µM (≈ 250 µg/mL); in data set [2], 12 µM (≈ 4.02 µg/mL); in data set [3], 23 µM (≈ 7.71 µg/mL). Further, in data set [5], the IC50 was determined as 3.41 ± 0.41 µM.
On to `CO[C@H]1/C=C/O[C@@]2(C)Oc3c(C)c(O)c4c(O)c(c(/C=N/N5CCN(C)CC5)c(O)c4c3C2=O)NC(=O)/C(C)=C\C=C\[C@H](C)[C@H](O)[C@@H](C)[C@@H](O)[C@@H](C)[C@H](OC(C)=O)[C@@H]1C` [RIF, rifampicin, reference compound], for which the MIC in data set [1] is 10 µM (≈ 8.23 µg/mL); in data set [2] it was 19 µM (≈ 15.6 µg/mL); in data set [3], 0.15 µM (≈ 0.123 µg/mL). The half-inhibitory concentration (IC50) in data set [5] is above 30 µM.
